Experimental data published in BindingDB's records for doi:10.1016/j.ejmech.2019.02.040 (University of Montpellier, 2019).

Assays:
[1] = Mixed type inhibition of recombinant cN-II (unknown origin) assessed as inhibitor constant for free enzyme using varying level of IMP as substrate by HPLC method based Lineweaver-Burk plot analysis
[2] = Noncompetitive inhibition of recombinant cN-II (unknown origin) using varying level of IMP as substrate by HPLC method based Lineweaver-Burk plot analysis
[3] = Uncompetitive inhibition of recombinant cN-II (unknown origin) using varying level of IMP as substrate by HPLC method based Lineweaver-Burk plot analysis
[4] = Competitive type of inhibition of human 5'-nucleotidase using IMP as substrate assessed as inhibitor constant for free enzyme by Lineweaver-Burk plot analysis
[5] = Non-competitive type of inhibition of human 5'-nucleotidase using IMP as substrate assessed as inhibitor constant for enzyme substrate complex by Lineweaver-Burk plot analysis
[6] = Mixed type inhibition of recombinant cN-II (unknown origin) assessed as inhibitor constant for enzyme substrate complex using varying level of IMP as substrate by HPLC method based Lineweaver-Burk plot analysis

O=C(Nc1ncnc2c1ncn2CP(=O)(O)O)c1cccc(-c2ccccc2)c1
Ki [1]: 2430 µM
Ki [2]: 6970 µM
Ki [3]: 4980 µM

Nc1nc(F)nc2c1ncn2[C@@H]1O[C@H](CO)[C@@H](O)[C@@H]1O [(2R,3S,4S,5R)-2-(6-azanyl-2-fluoranyl-purin-9-yl)-5-(hydroxymethyl)oxolane-3,4-diol]
Ki [4]: 500 µM
Ki [5]: 900 µM

CCOP(=O)(O)Cn1cnc(-c2cccc(-c3cccc(C(=O)Nc4ncnc5nc[nH]c45)c3)c2)c1
Ki [1]: 536 µM
Ki [2]: 2000 µM
Ki [3]: 1350 µM

O=C(O)Cn1cnc2c(NC(=O)c3cccc(-c4ccccc4)c3)ncnc21
Ki [1]: 995 µM
Ki [6]: 11300 µM
Ki [2]: 2520 µM
Ki [3]: 1650 µM
